Drawing on patent publication US12226412B2, “Heteroaryl-ketone fused azadecalin glucocorticoid receptor modulators” (Corcept Therapeutics, Inc., priority 2012, dated 2025), this text covers Ki for 20 compounds.

Assay [1] has as its target T1, human recombinant GR (Homo sapiens, UniProt P04150).
T1 construct: purchased PanVera P2812
T1 sequence (P04150 1-777): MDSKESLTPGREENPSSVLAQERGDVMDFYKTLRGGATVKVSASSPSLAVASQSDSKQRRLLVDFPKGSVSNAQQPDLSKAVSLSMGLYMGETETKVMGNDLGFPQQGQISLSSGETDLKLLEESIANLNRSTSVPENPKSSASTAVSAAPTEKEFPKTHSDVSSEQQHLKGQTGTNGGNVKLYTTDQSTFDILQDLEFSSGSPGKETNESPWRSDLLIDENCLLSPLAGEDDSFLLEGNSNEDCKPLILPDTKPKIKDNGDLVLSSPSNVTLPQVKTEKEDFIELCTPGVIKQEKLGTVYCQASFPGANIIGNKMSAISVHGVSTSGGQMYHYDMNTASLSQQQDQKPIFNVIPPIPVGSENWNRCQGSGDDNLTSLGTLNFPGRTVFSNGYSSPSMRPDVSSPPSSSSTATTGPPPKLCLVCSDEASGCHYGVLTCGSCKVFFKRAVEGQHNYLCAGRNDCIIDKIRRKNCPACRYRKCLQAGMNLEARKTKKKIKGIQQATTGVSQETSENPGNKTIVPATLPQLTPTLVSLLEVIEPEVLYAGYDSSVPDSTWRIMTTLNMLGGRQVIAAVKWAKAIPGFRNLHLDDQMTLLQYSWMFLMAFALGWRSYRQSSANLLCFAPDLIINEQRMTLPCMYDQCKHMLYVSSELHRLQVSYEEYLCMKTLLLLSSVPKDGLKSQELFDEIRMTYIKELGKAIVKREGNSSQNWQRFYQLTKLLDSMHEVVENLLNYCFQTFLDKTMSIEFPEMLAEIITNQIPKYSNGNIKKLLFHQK
Put plainly: Human glucocorticoid receptor (GR) fluorescence polarisation (FP) binding assay. Summed up:
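Competition fluorescence polarisation: 0.5 nM GS Red labelled glucocorticoid and 1 nM recombinant human GR with 8-point half-log compound series, 1% DMSO, 4 h room temperature, potassium phosphate pH 7.4 buffer with molybdate, EDTA, DTT. Affinity derived from the drop in polarisation, normalised to blank wells.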
(In fluorescence polarisation assays a small probe gives low polarisation when free and higher when bound to something large.)

In assay [2] the test system is induction of TAT by dexamethasone in HepG2 cells. Put plainly: HepG2 tyrosine aminotransferase (TAT) assay. It is filed as cell-based, human.
Setting [3] is: human recombinant GR, fluorescence polarisation binding assay, read-out: GR binding.
The mark [4] stands for this setting: HepG2 cells, challenge of 100 nM dexamethasone, Ki from IC50 by Cheng and Prusoff equation.

Each structure is given as a SMILES string. Where two headings read alike, the source gives them in different places.

For the compound `O=C(c1cc(C(F)(F)F)ccn1)[C@]12Cc3cnn(-c4ccc(F)cc4)c3C=C1CCN(S(=O)(=O)c1c[nH]cn1)C2` [Example 2W, (R)-(6-((1H-imidazol-4-yl)sulfonyl)-1-(4-fluorophenyl)-4,4a,5,6,7,8-hexahydro-1H-pyrazolo[3,4-g]isoquinolin-4a-yl)(4-(trifluoromethyl)pyridin-2-yl)methanone], the Ki is above 1 nM in assay [1] (setting [3]) and 20 to 100 nM in assay [2] (setting [4]).

Take `O=C(c1ccccn1)[C@]12Cc3cnn(-c4ccc(F)cc4)c3C=C1CCN(S(=O)(=O)c1ccc(N3CCOCC3)nc1)C2` [Example 3, (R)-(1-(4-fluorophenyl)-6-((6-morpholinopyridin-3-yl)sulfonyl)-4,4a,5,6,7,8-hexahydro-1H-pyrazolo[3,4-g]isoquinolin-4a-yl)(pyridin-2-yl)methanone]: the results for the Ki in assay [1] (setting [3]) and in assay [2] (setting [4]) were below 0.5 nM and 20 to 100 nM, respectively.

In the case of `O=C(c1nccs1)[C@]12Cc3cnn(-c4ccc(F)cc4)c3C=C1CCN(S(=O)(=O)c1ccc(N3CCCC3)nc1)C2` [Example 4, (R)-(1-(4-fluorophenyl)-6-((6-(pyrrolidin-1-yl)pyridin-3-yl)sulfonyl)-4,4a,5,6,7,8-hexahydro-1H-pyrazolo[3,4-g]isoquinolin-4a-yl)(thiazol-2-yl)methanone], the Ki was below 0.5 nM in assay [1] (setting [3]) and at least 100 nM in assay [2] (setting [4]).

As for `O=C(c1nccs1)[C@]12Cc3cnn(-c4ccc(F)cc4)c3C=C1CCN(S(=O)(=O)c1ccc(F)cc1)C2` [Example 5, (R)-(1-(4-fluorophenyl)-6-((4-fluorophenyl)sulfonyl)-4,4a,5,6,7,8-hexahydro-1H-pyrazolo[3,4-g]isoquinolin-4a-yl)(thiazol-2-yl)methanone], the Ki was below 0.5 nM in assay [1] (setting [3]) and 20 to 100 nM in assay [2] (setting [4]).

Turning to `O=C(c1nccs1)[C@]12Cc3cnn(-c4ccc(F)cc4)c3C=C1CCN(S(=O)(=O)c1cccc(F)c1)C2` [Example 5A, (R)-(1-(4-fluorophenyl)-6-((3-fluorophenyl)sulfonyl)-4,4a,5,6,7,8-hexahydro-1H-pyrazolo[3,4-g]isoquinolin-4a-yl)(thiazol-2-yl)methanone], the Ki was below 0.5 nM in assay [1] (setting [3]) and below 20 nM in assay [2] (setting [4]).

`N#Cc1ccc(CS(=O)(=O)N2CCC3=Cc4c(cnn4-c4ccc(F)cc4)C[C@]3(C(=O)c3nccs3)C2)cc1` [Example 5B, (R)-4-(((1-(4-fluorophenyl)-4a-(thiazole-2-carbonyl)-4a,5,7,8-tetrahydro-1H-pyrazolo[3,4-g]isoquinolin-6 (4H)-yl)sulfonyl)methyl)benzonitrile]: the Ki in assay [1] (setting [3]) was below 0.5 nM; in assay [2] (setting [4]) it was at least 100 nM.

Consider `O=C(c1ccccn1)[C@]12Cc3cnn(-c4ccc(F)cc4)c3C=C1CCN(S(=O)(=O)c1cccc(C(F)(F)F)c1)C2` [Example 5C, (R)-(1-(4-fluorophenyl)-6-((3-(trifluoromethyl)phenyl)sulfonyl)-4,4a,5,6,7,8-hexahydro-1H-pyrazolo[3,4-g]isoquinolin-4a-yl)(pyridin-2-yl)methanone], for which the Ki in assay [1] was below 0.5 nM; in assay [2], below 20 nM.

`Cn1ncnc1C(=O)[C@]12Cc3cnn(-c4ccc(F)cc4)c3C=C1CCN(S(=O)(=O)c1ccc(C(F)(F)F)cc1)C2` [Example 5D, (R)-(1-(4-fluorophenyl)-6-((4-(trifluoromethyl)phenyl)sulfonyl)-4,4a,5,6,7,8-hexahydro-1H-pyrazolo[3,4-g]isoquinolin-4a-yl)(1-methyl-1H-1,2,4-triazol-5-yl)methanone]: the Ki in assay [1] (setting [3]) is below 0.5 nM; in assay [2] (setting [4]), at least 100 nM.

On to `O=C(c1cnccn1)[C@]12Cc3cnn(-c4ccc(F)cc4)c3C=C1CCN(S(=O)(=O)c1ccc(C(F)(F)F)cc1)C2` [Example 5E, (R)-(1-(4-fluorophenyl)-6-((4-(trifluoromethyl)phenyl)sulfonyl)-4,4a,5,6,7,8-hexahydro-1H-pyrazolo[3,4-g]isoquinolin-4a-yl)(pyrazin-2-yl)methanone], for which the Ki was below 0.5 nM in assay [1] and 20 to 100 nM in assay [2].

Consider `O=C(c1ccccn1)[C@]12Cc3cnn(-c4ccc(F)cc4)c3C=C1CCN(S(=O)(=O)c1cncc(F)c1)C2` [Example 5F, (R)-(1-(4-fluorophenyl)-6-((5-fluoropyridin-3-yl)sulfonyl)-4,4a,5,6,7,8-hexahydro-1H-pyrazolo[3,4-g]isoquinolin-4a-yl)(pyridin-2-yl)methanone], for which the figures for the Ki in assay [1] (setting [3]) and in assay [2] (setting [4]) were below 0.5 nM and 20 to 100 nM, respectively.

Turning to `O=C(c1ccccn1)[C@]12Cc3cnn(-c4ccc(F)cc4)c3C=C1CCN(S(=O)(=O)c1cccc(F)c1)C2` [Example 5G, (R)-(1-(4-fluorophenyl)-6-((3-fluorophenyl)sulfonyl)-4,4a,5,6,7,8-hexahydro-1H-pyrazolo[3,4-g]isoquinolin-4a-yl)(pyridin-2-yl)methanone], the Ki in assay [1] (setting [3]) was below 0.5 nM; in assay [2] (setting [4]), below 20 nM.

For `COc1ccc(C(=O)[C@]23Cc4cnn(-c5ccc(F)cc5)c4C=C2CCN(S(=O)(=O)c2ccc(C(F)(F)F)cc2)C3)nc1` [Example 5H, (R)-(1-(4-fluorophenyl)-6-((4-(trifluoromethyl)phenyl)sulfonyl)-4,4a,5,6,7,8-hexahydro-1H-pyrazolo[3,4-g]isoquinolin-4a-yl)(5-methoxypyridin-2-yl)methanone], the Ki in assay [1] (setting [3]) was 0.5 to 1 nM; in assay [2] (setting [4]) it was below 20 nM.

Consider `O=C(c1cncs1)[C@]12Cc3cnn(-c4ccc(F)cc4)c3C=C1CCN(S(=O)(=O)c1ccc(C(F)(F)F)cc1)C2` [Example 5I, (R)-(1-(4-fluorophenyl)-6-((4-(trifluoromethyl)phenyl)sulfonyl)-4,4a,5,6,7,8-hexahydro-1H-pyrazolo[3,4-g]isoquinolin-4a-yl)(thiazol-5-yl)methanone], for which the results for the Ki in assay [1] and in assay [2] were below 0.5 nM and above 100 nM, respectively.

Consider `O=C(c1nccs1)[C@]12Cc3cnn(-c4ccc(F)cc4)c3C=C1CCN(S(=O)(=O)c1ccc(N3CCCC3)cc1)C2` [Example 6, (R)-(1-(4-fluorophenyl)-6-((4-(pyrrolidin-1-yl)phenyl)sulfonyl)-4,4a,5,6,7,8-hexahydro-1H-pyrazolo[3,4-g]isoquinolin-4a-yl)(thiazol-2-yl)methanone], for which the figures for the Ki in assay [1] (setting [3]) and in assay [2] (setting [4]) were 0.5 to 1 nM and 20 to 100 nM, respectively.

As for `O=C(c1nccs1)[C@]12Cc3cnn(-c4ccc(F)cc4)c3C=C1CCN(S(=O)(=O)c1cccc(N3CCCC3)c1)C2` [Example 6A, (R)-(1-(4-fluorophenyl)-6-((3-(pyrrolidin-1-yl)phenyl)sulfonyl)-4,4a,5,6,7,8-hexahydro-1H-pyrazolo[3,4-g]isoquinolin-4a-yl)(thiazol-2-yl)methanone], the Ki in assay [1] (setting [3]) was below 0.5 nM; in assay [2] (setting [4]), at least 100 nM.

As for `O=C(c1nccs1)[C@]12Cc3cnn(-c4ccc(F)cc4)c3C=C1CCN(S(=O)(=O)c1cncc(N3CCCCC3)c1)C2` [Example 7, (R)-(1-(4-fluorophenyl)-6-((5-(piperidin-1-yl)pyridin-3-yl)sulfonyl)-4,4a,5,6,7,8-hexahydro-1H-pyrazolo[3,4-g]isoquinolin-4a-yl)(thiazol-2-yl)methanone], the figures for the Ki in assay [1] (setting [3]) and in assay [2] (setting [4]) were below 0.5 nM and 20 to 100 nM, respectively.

Consider `O=C(c1nccs1)[C@]12Cc3cnn(-c4ccc(F)cc4)c3C=C1CCN(S(=O)(=O)c1cncc(N3CCCC3)c1)C2` [Example 7A, (R)-(1-(4-fluorophenyl)-6-((5-(pyrrolidin-1-yl)pyridin-3-yl)sulfonyl)-4,4a,5,6,7,8-hexahydro-1H-pyrazolo[3,4-g]isoquinolin-4a-yl)(thiazol-2-yl)methanone], for which the Ki in assay [1] (setting [3]) was below 0.5 nM; in assay [2] (setting [4]) it was 20 to 100 nM.

As for `O=C(c1ccccn1)[C@]12Cc3cnn(-c4ccc(F)cc4)c3C=C1CCN(S(=O)(=O)c1ccc(N3CCCC3)nc1)C2` [Example 8, (R)-(1-(4-fluorophenyl)-6-((6-(pyrrolidin-1-yl)pyridin-3-yl)sulfonyl)-4,4a,5,6,7,8-hexahydro-1H-pyrazolo[3,4-g]isoquinolin-4a-yl)(pyridin-2-yl)methanone], the Ki in assay [1] (setting [3]) is below 0.5 nM; in assay [2] (setting [4]), at least 100 nM.

On to `O=C(c1nccs1)[C@]12Cc3cnn(-c4ccc(F)cc4)c3C=C1CCN(S(=O)(=O)c1ccc(N3CC[C@@H](F)C3)nc1)C2` [Example 9, ((R)-1-(4-fluorophenyl)-6-((6-((R)-3-fluoropyrrolidin-1-yl)pyridin-3-yl)sulfonyl)-4,4a,5,6,7,8-hexahydro-1H-pyrazolo[3,4-g]isoquinolin-4a-yl)(thiazol-2-yl)methanone], for which the Ki in assay [1] (setting [3]) is below 0.5 nM; in assay [2] (setting [4]), at least 100 nM.

Regarding `O=C(c1ccccn1)[C@]12Cc3cnn(-c4ccc(F)cc4)c3C=C1CCN(S(=O)(=O)c1ccc(N3CCCC3)cc1)C2` [Example 10, (R)-(1-(4-fluorophenyl)-6-((4-(pyrrolidin-1-yl)phenyl)sulfonyl)-4,4a,5,6,7,8-hexahydro-1H-pyrazolo[3,4-g]isoquinolin-4a-yl)(pyridin-2-yl)methanone], the Ki is below 0.5 nM in assay [1] (setting [3]) and at least 100 nM in assay [2] (setting [4]).
